Where a name gives a salt, the structure may show the parent alone. Read-outs that look alike come from different tables or passages of the source.

One assay has as its target T1, human His-PIM1 [2-313] (Homo sapiens, UniProt P11309).
T1 construct: purified human His-PIM1 [2-313] enzyme; His (N); purchased University of Dundee, Scotland; host or cells: baculovirus system
Briefly: PIM1 in-vitro mobility shift assay (Caliper LC3000, FL-Ahx-Bad phosphorylation). The conditions noted are these: 1.5 h, read-out: PIM1 % I at 0.3 uM. It is filed as biochemical. Put shortly:
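Compound preincubated 20 min at 25 °C with 2.4 nM PIM1, 3.6 µM FL-Ahx-Bad peptide and 240 µM ATP (1.2× mix concentrations). Reaction started with 24 mM MgCl2 mix, run 90 min at 25 °C, EDTA-stopped. Phospho/unphospho peptide separated by microfluidic mobility shift; percent inhibition from ratiometric turnover.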

Another assay concerns the target T2, human His-PIM2 [23-299] (Homo sapiens, UniProt Q9P1W9).
T2 construct: purified human His-PIM2 [23-299] enzyme; His (N); host or cells: E. coli
As to the kind of experiment: PIM2 in-vitro mobility shift assay (Caliper LC3000, FL-Ahx-Bad phosphorylation). The settings on record: 1.5 h; percent inhibition at 0.3 uM compound; read-out: PIM2 % I at 0.3 uM. It is filed as biochemical.

Setting [1] is: percent inhibition at 0.3 uM compound.

T2 sequence (Q9P1W9 23-299): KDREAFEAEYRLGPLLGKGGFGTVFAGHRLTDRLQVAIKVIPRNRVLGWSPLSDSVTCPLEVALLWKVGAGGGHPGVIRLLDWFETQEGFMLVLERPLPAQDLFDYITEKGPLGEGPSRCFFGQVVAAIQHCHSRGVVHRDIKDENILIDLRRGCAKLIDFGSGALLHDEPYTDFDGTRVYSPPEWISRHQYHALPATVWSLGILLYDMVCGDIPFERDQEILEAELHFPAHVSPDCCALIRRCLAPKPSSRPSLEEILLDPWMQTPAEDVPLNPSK
T1 sequence (P11309 2-313): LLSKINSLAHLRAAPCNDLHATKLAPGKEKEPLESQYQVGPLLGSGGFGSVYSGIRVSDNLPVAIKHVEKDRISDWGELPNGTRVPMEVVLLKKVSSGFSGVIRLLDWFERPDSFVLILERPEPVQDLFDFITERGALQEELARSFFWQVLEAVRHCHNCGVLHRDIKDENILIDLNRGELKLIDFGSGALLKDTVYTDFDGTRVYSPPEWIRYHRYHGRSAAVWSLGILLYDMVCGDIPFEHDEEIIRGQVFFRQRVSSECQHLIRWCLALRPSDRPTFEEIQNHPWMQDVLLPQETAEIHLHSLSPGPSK

`Cc1ccc(N2CC[C@H](N(C)C)C2)c(C=C2SC(=O)NC2=O)c1` [Example 84L, (S)-5-(2-(3-(dimethylamino)pyrrolidin-1-yl)-5-methylbenzylidene)thiazolidine-2,4-dione]: the inhibition at 0.3 µM on human His-PIM1 [2-313] (setting [1]) was > 95%; at human His-PIM2 [23-299], 55.2%.

As to `COc1cc(/C=C2\SC(=O)NC2=O)c(N2CC[C@@H](NCCCN)C2)cc1OC` [Example 122A, (R,Z)-5-(2-(3-(3-aminopropylamino)pyrrolidin-1-yl)-4,5-dimethoxybenzylidene)thiazolidine-2,4-dione hydrochloride], the inhibition at 0.3 µM at human His-PIM1 [2-313] (setting [1]) worked out at 88.2%; on human His-PIM2 [23-299] it was 55%.

Turning to `Cc1noc(C2CCCN(c3c(Cl)cc(C(F)(F)F)cc3/C=C3\SC(=O)NC3=O)C2)n1` (centres unmarked) [Example 16], the inhibition at 0.3 µM was 13.9% at human His-PIM1 [2-313] (setting [1]) and < 5% at human His-PIM2 [23-299].

Regarding `CC(C)(C)OC(=O)N1CCN(c2ccccc2/C=C2\SC(=O)NC2=O)CC1` [Example 58, (Z)-tert-butyl 4-(2-((2,4-dioxothiazolidin-5-ylidene)methyl)phenyl)piperazine-1-carboxylate], the inhibition at 0.3 µM at human His-PIM1 [2-313] (setting [1]) amounted to 16%; at human His-PIM2 [23-299] it was 7.1%.

In the case of `CN1CCN(c2c(Cl)cc(C(F)(F)F)cc2/C=C2\SC(=O)NC2=O)CC1` [Example 32], the inhibition at 0.3 µM stood at 94% on human His-PIM1 [2-313] (setting [1]) and 31.9% on human His-PIM2 [23-299].

Regarding `CN(C)[C@H]1CCN(c2ccc(Br)cc2C=C2SC(=O)NC2=O)C1` [Example 84M, (S)-5-(5-bromo-2-(3-(dimethylamino)pyrrolidin-1-yl)benzylidene)thiazolidine-2,4-dione], the inhibition at 0.3 µM was > 95% at human His-PIM1 [2-313] (setting [1]) and 80.9% at human His-PIM2 [23-299].

Consider `CN(C)CCN(C)S(=O)(=O)c1ccc(-c2ccccc2/C=C2\SC(=O)NC2=O)cc1` [Example 84F, (Z)-N-(2-(dimethylamino)ethyl)-2′-((2,4-dioxothiazolidin-5-ylidene)methyl)-N-methylbiphenyl-4-sulfonamide], for which the inhibition at 0.3 µM on human His-PIM1 [2-313] (setting [1]) is 87.4%; at human His-PIM2 [23-299], 52.4%.

As for `O=C(Cc1cccnc1)N[C@H]1CCN(c2c(Cl)cccc2/C=C2\SC(=O)NC2=O)C1` [Example 139], the values for the inhibition at 0.3 µM at human His-PIM1 [2-313] (setting [1]) and on human His-PIM2 [23-299] were 58.1% and 15.1%, respectively.

With `NCCCCC(=O)N1CCN(c2ccccc2/C=C2\SC(=O)NC2=O)CC1` [Example 108, (Z)-5-(2-(4-(5-aminopentanoyl)piperazin-1-yl)benzylidene)thiazolidine-2,4-dione hydrochloride], the inhibition at 0.3 µM on human His-PIM1 [2-313] (setting [1]) and at human His-PIM2 [23-299] was > 95% in each case.

`NC[C@H]1CCN(c2c(Cl)cccc2/C=C2\SC(=O)NC2=O)C1` [Example 122B, (R,Z)-5-(2-(3-(aminomethyl)pyrrolidin-1-yl)-3-chlorobenzylidene)thiazolidine-2,4-dione]: the values for the inhibition at 0.3 µM at human His-PIM1 [2-313] (setting [1]) and at human His-PIM2 [23-299] were > 95% and 92.3%, respectively.

Take `NCCCN[C@H]1CCN(c2ccc(C(F)(F)F)cc2/C=C2\SC(=O)NC2=O)C1` [Example 123, (S,Z)-5-(2-(3-(3-aminopropylamino)pyrrolidin-1-yl)-5-(trifluoromethyl)benzylidene)thiazolidine-2,4-dione hydrochloride]: the inhibition at 0.3 µM at human His-PIM1 [2-313] (setting [1]) and at human His-PIM2 [23-299] was > 95% in each case.

Consider `COc1cc(/C=C2\SC(=O)NC2=O)c(N2CC[C@H](N)C2)cc1OC` [Example 101, (S,Z)-5-(2-(3-aminopyrrolidin-1-yl)-4,5-dimethoxybenzylidene)thiazolidine-2,4-dione hydrochloride], for which the inhibition at 0.3 µM on human His-PIM1 [2-313] (setting [1]) and on human His-PIM2 [23-299] was > 95% each time.

On to `CC(C)(C)OC(=O)N1CCN(c2ccc(C(F)(F)F)cc2/C=C2\SC(=O)NC2=O)CC1` [Example 55, (Z)-tert-butyl 4-(2-((2,4-dioxothiazolidin-5-ylidene)methyl)-4-(trifluoromethyl)phenyl)piperazine-1-carboxylate], for which the inhibition at 0.3 µM on human His-PIM1 [2-313] (setting [1]) was 11%; at human His-PIM2 [23-299], < 5%.

Take `COc1cc(/C=C2\SC(=O)NC2=O)c(N2CCC(CN)C2)cc1OC` (centres unmarked) [Example 99, (Z)-5-(2-(3-(aminomethyl)pyrrolidin-1-yl)-4,5-dimethoxybenzylidene)thiazolidine-2,4-dione hydrochloride]: the inhibition at 0.3 µM at human His-PIM1 [2-313] (setting [1]) and at human His-PIM2 [23-299] was > 95% each time.

For `CN1CCN(c2ccccc2/C=C2\SC(=O)NC2=O)CC1` [Example 84A, (5Z)-5-[2-(4-methylpiperazin-1-yl)benzylidene]-1,3-thiazolidine-2,4-dione], the inhibition at 0.3 µM was determined as 92.9% on human His-PIM1 [2-313] (setting [1]) and 54.3% at human His-PIM2 [23-299].

As to `N[C@@H]1CCCN(c2c(Cl)cc(C(F)(F)F)cc2/C=C2\SC(=O)NC2=O)C1` [Example 2], the inhibition at 0.3 µM at human His-PIM1 [2-313] (setting [1]) and on human His-PIM2 [23-299] was > 95% each time.

Take `COc1cc(/C=C2\SC(=O)NC2=O)c(N2CCN(C(C)C)CC2)cc1OC` [Example 53, (5Z)-5-{2-(4-isopropylpiperazin-1-yl)-4,5-dimethoxybenzylidene}-thiazolidine-2,4-dione]: the figures for the inhibition at 0.3 µM on human His-PIM1 [2-313] (setting [1]) and at human His-PIM2 [23-299] were 92.3% and 82.1%, respectively.

Consider `COc1cccc(/C=C2\SC(=O)NC2=O)c1N1CC[C@H](NCCCN)C1` [Example 124], for which the inhibition at 0.3 µM on human His-PIM1 [2-313] (setting [1]) and at human His-PIM2 [23-299] was > 95% in each case.

As to `NCCCN[C@@H]1CCCN(c2c(Cl)cccc2/C=C2\SC(=O)NC2=O)C1` [Example 129B], the inhibition at 0.3 µM at human His-PIM1 [2-313] (setting [1]) and at human His-PIM2 [23-299] was > 95% in each case.

On to `N[C@@H]1CCCN(c2c(Br)cccc2/C=C2\SC(=O)NC2=O)C1` [Example 122F, (R,Z)-5-(2-(3-aminopiperidin-1-yl)-3-bromobenzylidene)thiazolidine-2,4-dione hydrochloride], for which the inhibition at 0.3 µM on human His-PIM1 [2-313] and at human His-PIM2 [23-299] was > 95% each time.

Turning to `COc1cc(/C=C2\SC(=O)NC2=O)c(N2CCC(O)C2)cc1OC` (centres unmarked) [Example 45, (5Z)-5-[2-(3-hydroxypyrrolidin-1-yl)-4,5-dimethoxybenzylidene]-1,3-thiazolidine-2,4-dione], the inhibition at 0.3 µM on human His-PIM1 [2-313] (setting [1]) came out at 40.1%; on human His-PIM2 [23-299] it was 14.3%.

With `Cc1ccc(C=C2SC(=O)NC2=O)c(N2CC[C@H](N(C)C)C2)c1` [Example 84J, (S)-5-(2-(3-(dimethylamino)pyrrolidin-1-yl)-4-methylbenzylidene)thiazolidine-2,4-dione], the inhibition at 0.3 µM at human His-PIM1 [2-313] (setting [1]) was determined as 93.3%; at human His-PIM2 [23-299], 40.4%.

Regarding `Cn1ccc(C(=O)N[C@H]2CCN(c3c(Cl)cccc3/C=C3\SC(=O)NC3=O)C2)n1` [Example 137], the results for the inhibition at 0.3 µM at human His-PIM1 [2-313] (setting [1]) and on human His-PIM2 [23-299] were 55.1% and 18.6%, respectively.

Regarding `CC(C)N1CCN(c2ccccc2/C=C2\SC(=O)NC2=O)CC1` [Example 50, (5Z)-5-[2-(4-isopropylpiperazin-1-yl)benzylidene]-1,3-thiazolidine-2,4-dione], the inhibition at 0.3 µM on human His-PIM1 [2-313] (setting [1]) came out at 93.7%; at human His-PIM2 [23-299] it was 45.4%.

For the molecule `COc1cc(/C=C2\SC(=O)NC2=O)c(N(C)CCN(C)C)cc1OC` [Example 51, (5Z)-5-{2-[[2-(dimethylamino)ethyl](methyl)amino]-4,5-dimethoxybenzylidene}-1,3-thiazolidine-2,4-dione], the figures for the inhibition at 0.3 µM on human His-PIM1 [2-313] (setting [1]) and on human His-PIM2 [23-299] were 85.5% and 80.6%, respectively.
